Source: the NIST ThermoML archive (doi:10.1021/acs.jced.8b00229)

Conditions: Liquid, Vibrating tube method

C=CCCCCC [1-heptene]
Conditions | mass density [kg/m3]
283.52 K, 15000 kPa | 718.3
283.52 K, 20000 kPa | 722.2
283.52 K, 25000 kPa | 725.9
283.52 K, 30000 kPa | 729.4
283.52 K, 35000 kPa | 732.9
283.52 K, 40000 kPa | 736.1
283.52 K, 55000 kPa | 745.3
283.53 K, 100 kPa | 705.5
283.53 K, 500 kPa | 705.9
283.53 K, 1000 kPa | 706.4
283.53 K, 3000 kPa | 708.2
283.53 K, 5000 kPa | 710
283.53 K, 10000 kPa | 714.3
283.53 K, 45000 kPa | 739.3
283.53 K, 50000 kPa | 742.4
283.53 K, 60000 kPa | 748.2
283.53 K, 80000 kPa | 759
283.53 K, 90000 kPa | 763.9
283.54 K, 70000 kPa | 753.8
283.54 K, 100000 kPa | 768.7
293.45 K, 100 kPa | 697
293.45 K, 500 kPa | 697.4
293.45 K, 1000 kPa | 697.9
293.45 K, 5000 kPa | 701.8
293.45 K, 20000 kPa | 714.8
293.45 K, 25000 kPa | 718.7
293.45 K, 30000 kPa | 722.4
293.45 K, 35000 kPa | 726
293.45 K, 55000 kPa | 739
293.45 K, 60000 kPa | 742
293.45 K, 70000 kPa | 747.8
293.45 K, 80000 kPa | 753.2
293.45 K, 90000 kPa | 758.3
293.45 K, 100000 kPa | 763.1
293.46 K, 3000 kPa | 699.9
293.46 K, 10000 kPa | 706.4
293.46 K, 15000 kPa | 710.7
293.46 K, 40000 kPa | 729.4
293.46 K, 45000 kPa | 732.8
293.46 K, 50000 kPa | 736
303.37 K, 100 kPa | 688.4
303.37 K, 500 kPa | 688.9
303.37 K, 55000 kPa | 732.8
303.37 K, 100000 kPa | 757.7
303.38 K, 1000 kPa | 689.5
303.38 K, 3000 kPa | 691.6
303.38 K, 5000 kPa | 693.6
303.38 K, 10000 kPa | 698.5
303.38 K, 15000 kPa | 703.1
303.38 K, 20000 kPa | 707.4
303.38 K, 25000 kPa | 711.5
303.38 K, 30000 kPa | 715.4
303.38 K, 35000 kPa | 719.2
303.38 K, 40000 kPa | 722.8
303.38 K, 45000 kPa | 726.2
303.38 K, 50000 kPa | 729.5
303.38 K, 60000 kPa | 735.9
303.38 K, 70000 kPa | 741.8
303.38 K, 80000 kPa | 747.4
303.38 K, 90000 kPa | 752.6
313.29 K, 100 kPa | 680.6
313.3 K, 500 kPa | 681.1
313.3 K, 5000 kPa | 686.2
313.3 K, 20000 kPa | 700.9
313.3 K, 25000 kPa | 705.2
313.3 K, 30000 kPa | 709.3
313.3 K, 35000 kPa | 713.3
313.3 K, 40000 kPa | 717
313.3 K, 45000 kPa | 720.6
313.3 K, 50000 kPa | 724
313.3 K, 55000 kPa | 727.4
313.3 K, 60000 kPa | 730.6
313.3 K, 70000 kPa | 736.8
313.3 K, 80000 kPa | 742.6
313.3 K, 90000 kPa | 748
313.3 K, 100000 kPa | 753.1
313.31 K, 1000 kPa | 681.8
313.31 K, 3000 kPa | 684
313.31 K, 10000 kPa | 691.3
313.31 K, 15000 kPa | 696.3
323.18 K, 100 kPa | 670.5
323.18 K, 500 kPa | 671
323.18 K, 1000 kPa | 671.6
323.18 K, 3000 kPa | 674.1
323.18 K, 10000 kPa | 682
323.18 K, 25000 kPa | 696.6
323.18 K, 30000 kPa | 700.9
323.18 K, 35000 kPa | 705
323.18 K, 40000 kPa | 708.9
323.18 K, 45000 kPa | 712.7
323.18 K, 50000 kPa | 716.3
323.18 K, 55000 kPa | 719.7
323.18 K, 60000 kPa | 723.1
323.18 K, 70000 kPa | 729.6
323.18 K, 80000 kPa | 735.5
323.19 K, 5000 kPa | 676.4
323.19 K, 15000 kPa | 687.1
323.19 K, 20000 kPa | 692
323.19 K, 90000 kPa | 741.1
323.19 K, 100000 kPa | 746.4
333.04 K, 100 kPa | 661.5
333.04 K, 500 kPa | 662
333.04 K, 1000 kPa | 662.7
333.05 K, 3000 kPa | 665.3
333.05 K, 5000 kPa | 667.9
333.05 K, 10000 kPa | 673.8
333.05 K, 15000 kPa | 679.3
333.05 K, 20000 kPa | 684.5
333.05 K, 25000 kPa | 689.3
333.05 K, 30000 kPa | 693.8
333.05 K, 35000 kPa | 698.1
333.05 K, 40000 kPa | 702.2
333.05 K, 45000 kPa | 706.2
333.05 K, 50000 kPa | 709.9
333.05 K, 55000 kPa | 713.5
333.05 K, 60000 kPa | 717
333.05 K, 70000 kPa | 723.7
333.05 K, 80000 kPa | 729.9
333.05 K, 90000 kPa | 735.7
333.05 K, 100000 kPa | 741.1
342.91 K, 100 kPa | 652.7
342.91 K, 500 kPa | 653.3
342.91 K, 1000 kPa | 654
342.91 K, 3000 kPa | 656.9
342.91 K, 15000 kPa | 671.8
342.91 K, 30000 kPa | 687.1
342.91 K, 35000 kPa | 691.7
342.92 K, 5000 kPa | 659.6
342.92 K, 10000 kPa | 666
342.92 K, 20000 kPa | 677.4
342.92 K, 25000 kPa | 682.4
342.92 K, 40000 kPa | 696
342.92 K, 45000 kPa | 700.1
342.92 K, 50000 kPa | 703.9
342.92 K, 55000 kPa | 707.7
342.92 K, 60000 kPa | 711.3
342.92 K, 70000 kPa | 718.3
342.92 K, 80000 kPa | 724.6
342.92 K, 90000 kPa | 730.6
342.92 K, 100000 kPa | 736.2
352.8 K, 100 kPa | 644.3
352.8 K, 500 kPa | 644.9
352.8 K, 40000 kPa | 690
352.8 K, 45000 kPa | 694.3
352.8 K, 50000 kPa | 698.4
352.8 K, 70000 kPa | 713.2
352.8 K, 80000 kPa | 719.7
352.8 K, 90000 kPa | 725.9
352.8 K, 100000 kPa | 731.7
352.81 K, 1000 kPa | 645.7
352.81 K, 3000 kPa | 648.8
352.81 K, 5000 kPa | 651.6
352.81 K, 10000 kPa | 658.4
352.81 K, 15000 kPa | 664.7
352.81 K, 20000 kPa | 670.5
352.81 K, 25000 kPa | 675.8
352.81 K, 30000 kPa | 680.9
352.81 K, 35000 kPa | 685.6
352.81 K, 55000 kPa | 702.3
352.81 K, 60000 kPa | 706
362.68 K, 100 kPa | 633.6
362.68 K, 500 kPa | 634.3
362.68 K, 100000 kPa | 725.7
362.69 K, 1000 kPa | 635
362.69 K, 3000 kPa | 638.5
362.69 K, 5000 kPa | 641.7
362.69 K, 20000 kPa | 661.9
362.69 K, 30000 kPa | 672.8
362.69 K, 35000 kPa | 677.8
362.69 K, 40000 kPa | 682.5
362.69 K, 45000 kPa | 687
362.69 K, 50000 kPa | 691.2
362.69 K, 55000 kPa | 695.2
362.69 K, 60000 kPa | 699.1
362.69 K, 70000 kPa | 706.6
362.69 K, 80000 kPa | 713.4
362.69 K, 90000 kPa | 719.7
362.7 K, 10000 kPa | 649.1
362.7 K, 15000 kPa | 655.8
362.7 K, 25000 kPa | 667.6
